Literature values, collected in publication PMC6525002 (Cancer Management and Research, 2019).

How the values were obtained:
patients with NSCLC = conditions: clinical trials; cited from earlier work
[1] = cited from earlier work
[2] = tested on: NSCLC patients with EGFR mutations; conditions: cited from earlier work

Row | SMILES | frequency of diarrhea (patients with NSCLC) | time to Cmax ([1]; cancer patients, post-dose) | inter-patient variability of exposure ([1]; post single-dose exposure) | response rates on brain metastases [2]
1 | CN(C)C/C=C/C(=O)Nc1cc2c(Nc3ccc(F)c(Cl)c3)ncnc2cc1O[C@H]1CCOC1 [afitinib] | 87.0% | – | – | –
2 | COc1cc2ncnc(Nc3ccc(F)c(Cl)c3)c2cc1OCCCN1CCOCC1 [gefitinib] | – | 3 h | 1.5 fold | –
3 | C#Cc1cccc(Nc2ncnc3cc(OCCOC)c(OCCOC)cc23)c1 [erlotinib] | 40.0–67.9% | – | – | 60–80%
